{"source": "patent US20170239307A1", "about": "“COMPOSITION OF DOXYCYCLINE IN LIPOSOMES FOR THE PREVENTION, IMPROVEMENT AND/OR TREATMENT OF OCULAR PATHOLOGIES” (AGENCIA PÚBLICA EMPRESARIAL SANITARIA HOSPITAL ALTO …, priority 2014, published 2017)", "key": {"vascular intimal layer": {"tested_on": "vascular intimal layer", "conditions": "patients taking doxycycline; cited from earlier work"}, "diabetic retinopathy": {"tested_on": "diabetic retinopathy", "experiment": "Case report: supervision of the fundus of the eye in a diabetic patient", "type": "in vivo", "conditions": "diabetic patient with high blood glucose; treatment orally and as eye drops from 11 Feb. 2009"}, "[1]": {"tested_on": "chronic anterior and posterior blepharitis", "experiment": "Case report: patient with blepharitis and glycemic decompensation, clinic examinations", "conditions": "same patient; high doses of oral doxycycline prescribed for 20 days, treatment abandoned", "quoted_text": "Treatment with tobramycin and dexamethasone in the form of eye drops and artificial tears was established at that time."}, "[2]": {"tested_on": "symptoms derived from blepharitis-dry eye like disease", "experiment": "Symptom score according to the dry eye questionnaire", "type": "in vivo, patients", "from_the_text": "FIG. 2. Individual analysis of each patient according to dry eye questionnaire score. All patients completed a questionnaire to evaluate the symptoms derived from blepharitis-dry eye like disease. […] FIG. 3. […] This figure complements FIG. 2. This test was designed (see test design literature) for assessing the symptoms the patient experiences and they can be expressed by means of a score based on questions about these symptoms."}, "thrombosis": {"tested_on": "thrombosis", "conditions": "certain groups of hemodialysis patients; cited from earlier work"}, "aneurysmal dilatation": {"tested_on": "aneurysmal dilatation", "conditions": "rats; cited from earlier work"}}, "data": [{"smiles": "C[C@H]1c2cccc(O)c2C(O)=C2C(=O)[C@]3(O)C(=O)/C(=C(/N)O)C(=O)[C@@H](N(C)C)[C@@H]3[C@@H](O)[C@@H]21", "note": "[doxycycline, (2Z,4S,4aR,5S,5aR,6R,12aS)-2-(amino-hydroxymethylidene)-4-dimethylamino-5,10,11,12a-tetrahydroxy-6-methyl-4a,5,5a,6-tetrahydro-4H-tetracene-1,3,12-trione]", "values": [{"measurement": "vascular intimal layer proliferation and muscle cell migration", "setting": "vascular intimal layer", "value": "less vascular intimal layer proliferation as well as less muscle cell migration"}, {"measurement": "signs of diabetic retinopathy", "setting": "diabetic retinopathy", "value": "no signs of diabetic retinopathy"}, {"measurement": "intolerance / side effect", "setting": "[1]", "value": "an episode of gastritis"}, {"measurement": "symptom score, dry eye questionnaire, each patient", "setting": "[2]; 12 blepharitis patients, before treatment at least moderate, most severe, FIG. 2", "value": "symptoms improved"}, {"measurement": "sum of all the scores in all patients, dry eye questionnaire", "setting": "[2]; before vs after treatment, FIG. 3", "value": "Symptoms decreased significantly"}, {"measurement": "prevention of thrombosis", "setting": "thrombosis", "value": "effective in the prevention of thrombosis"}, {"measurement": "aneurysmal dilatation", "setting": "aneurysmal dilatation", "value": "capable of preventing aneurysmal dilatation without subsequent signs of inflammation"}]}]}
